According to PMC6624297 (Cell Death & Disease, 2019):

Legend:
IOSE80 cell line = assay: Selectivity index against IOSE80; format: cell-based; settings: SI = CC50/IC50
GES-1 cell line = assay: Selectivity index against GES-1; format: cell-based; settings: SI = CC50/IC50
BRaf kinase = BRaf kinase (Homo sapiens, UniProt P15056); assay: ADP-Glo kinase assay, BRaf; format: biochemical; settings: averages from triplicate assays
Description: (§1) The ADP-Glo™ kinase assay (Promega, Madison, WI) was used to screen target compounds for their inhibition effects for BRaf, EGFR kinase. The kinase assay was carried out in a 96-well plate, in a volume of 25 μL HEPES (pH 7.3) solvent containing 1.6 μg/mL EGF, and 20 ng of EGFR kinase, or 50 ng BRaf kinase, and 10 μM ATP (Promega, Madison, WI). […] Reactions in each well were started immediately by adding ATP and kept going for half an hour under 30 °C in a constant temperature incubator (Bluepard, Shanghai, China). After the plate cooled for 5 min at room temperature, 25 μl of ADP-Glo reagent was added into each well to stop the reaction and consume the remaining […] within 40 min. At the end, 50 μl of kinase detection reagent was added into the well and incubated for 1 h to produce a luminescence signal.

LO2 cell line = assay: Selectivity index against LO2; format: cell-based; settings: SI = CC50/IC50
A549 cells [1] = assay: MTT assay A549; format: cell-based, human; settings: Homo sapiens, A549, 24h of treatment, mean ± SD
Description: (§2) Details are given in Supplementary Materials and Methods. Using probability unit and weighted regression method to calculate the IC50 value of compounds.
(§3) Total cells in the logarithmic growth phase were collected, digested using 0.25% pancreatic enzymes, and then diluted into single-cell suspensions using phosphate-buffered solution (PBS). These cells were seeded into 96-well plates at 4× 10^3-5× 10^3 cells per well (100 µL per well) and then A549, H460, OVCAR-3, SGC7901, MDA-MB-231, HCT116 and HepG2 were cultured at 37°Cin an incubator containing 5% CO2. After cell complete attachment, 100 µL of different concentrations of compounds (0.625 μM, 1.25 μM, 2.5μM, 5 μM, 10 μM) were added to the cells after the nutrient solution in each well was discarded, while no compound except 0.1% DMSO was added to cells in the control group; at the same time, each concentration was set up to 5 wells. In addition, 5 wells in each 96-well plate only received 100 µL of nutrient solution as a blank control. The plates were taken out after the cells were incubated with compounds for 24 h, and 20 µL of MTT solution (5 mg/mL) (Wuhan Boster Biotechnology Limited Company, Wuhan, China; item No. AR1156) was added into all the wells. After another time of incubation for 4 h at 37 °C, the nutrient solution in each well was discarded slowly, and 150 µL of DMSO was added to each well. The plates were shaken on a shaking table for 20 min. When the crystals were fully dissolved, the blank wells were used to zero the plate reader. The optical density (OD) of each well was detected at 490 nm. The IC50 value was determined as the concentration of the inhibitor that caused 50% inhibition. Using probability unit and weighted regression method to calculate the IC50 value of compounds.

human TS (hTS) = biological target: T1, human TS (hTS) (Homo sapiens, UniProt P04818); assay: Thymidylate synthase (TS) spectrophotometric assay; format: biochemical; settings: averages from triplicate assays
T1 construct: purchased ProSpec-Tany
Description: Recombinant human thymidylate synthase purchased from ProSpec-Tany Company. TS was assayed spectrophotometrically at 30 °C and pH 7.4 in a mixture containing 0.1 M 2-mercaptoethanol, 0.0003 M (6R,S)-tetrahydrofolate, 0.012 M formaldehyde, 0.02 M MgCl2, 0.001 M dUMP, 0.04 M Tris–HCl, 30 nM hTS, and 0.00075 M NaEDTA. […] The reaction was initiated by the addition of an amount of enzyme yielding a change in absorbance at 340 nm of 0.016/min in the absence of inhibitor.

SK-MES-1 cells = assay: MTT assay SK-MES-1; format: cell-based
EGFR kinase = EGFR kinase (Homo sapiens, UniProt P00533); assay: ADP-Glo kinase assay, EGFR; format: biochemical; settings: averages from triplicate assays
Description: as §1

HepG2 cells = assay: MTT assay HepG2; format: cell-based; settings: Homo sapiens, 24h of treatment, mean ± SD
Description: as §2, §3

HPAEpiC cell line = assay: Selectivity index against HPAEpiC; format: cell-based; settings: SI = CC50/IC50
HCT-116 cells = assay: MTT assay HCT-116; format: cell-based; settings: Homo sapiens, 24h of treatment, mean ± SD
Description: as §2, §3

HTB-125 cell line = assay: Selectivity index against HTB-125; format: cell-based; settings: SI = CC50/IC50
OVCAR-3 cells = assay: MTT assay OVCAR-3; format: cell-based; settings: Homo sapiens, 24h of treatment, mean ± SD
Description: as §2, §3

SGC7901 cells = assay: MTT assay SGC7901; format: cell-based; settings: Homo sapiens, SGC-7901, 24h of treatment, mean ± SD
Description: as §2, §3

A549 cells [2] = assay: Transwell migration and wound healing, A549; format: cell-based, human; settings: at high doses
Description: Cell migration ability was measured using transwell chambers (8-μm pore size; Corning Costar, Cambridge, MA, USA). For the transwell assay, A549 and H460 cells suspended in serum-free RPMI-1640 medium containing different concentrations of L14e (0, 0.5, 1.0, and 1.5 μM) were seeded into the upper chamber. The lower chamber contained RPMI-1640 medium supplemented with 20% serum. After 24 h incubation, the filters were fixed in methanol and stained with 0.1% crystal violet. The upper faces of the filters were gently abraded, and the lower faces with cells migrated across the filters were imaged and counted under the microscope. For wound healing assays, cells were placed into 6-well plates and cultured until 100% confluence. An artificial scratch was created using a 200 μL pipette tip. Add serum-free RPMI-1640 medium containing different concentrations of drugs. At 24 h after culturing in serum-free medium, wound closure images were captured in the same field under magnification. Cell healing rates were calculated by the fraction of cell coverage across the line. These experiments were performed in triplicate and repeated three times.

MDA-MB-231 cells = assay: MTT assay MDA-MB-231; format: cell-based; settings: Homo sapiens, 24h of treatment, mean ± SD
Description: as §2, §3

HCoEpiC cell line = assay: Selectivity index against HCoEpiC; format: cell-based; settings: SI = CC50/IC50
FVB mice = assay: Toxicity test in FVB mice; format: in vivo; settings: mice, 3 weeks
Description: Blood was collected from euthanized mice under isoflurane-induced deep anesthesia by cardiac puncture. After allowing blood coagulation at 4 °C, serum was collected by centrifugation at 3000 rpm for 10 min at 4 °C. Analysis of the level of ALT, AST, Glu and CRE in the serum was performed using a veterinary hematology analyzer (Fuji DRI-Chem 3500 s, Fujifilm, Tokyo, Japan) according to the manufacturer’s provided protocols. The histopathological changes in liver, lung, brain, and kidney were evaluated by using HE-stained section of the tissues (This part of the results is in the supplementary document).
Tissues were fixed in 10% neutral-buffered formalin for 24 h, embedded in paraffin, cut into 4-μm-thick sections, deparaffinized with xylene and processed with a graded ethanol series. Next, the sections were stained with HE and were observed using Eclipse Ts2 microscope (Nikon).

BRaf kinase, sequence (P15056 whole entry): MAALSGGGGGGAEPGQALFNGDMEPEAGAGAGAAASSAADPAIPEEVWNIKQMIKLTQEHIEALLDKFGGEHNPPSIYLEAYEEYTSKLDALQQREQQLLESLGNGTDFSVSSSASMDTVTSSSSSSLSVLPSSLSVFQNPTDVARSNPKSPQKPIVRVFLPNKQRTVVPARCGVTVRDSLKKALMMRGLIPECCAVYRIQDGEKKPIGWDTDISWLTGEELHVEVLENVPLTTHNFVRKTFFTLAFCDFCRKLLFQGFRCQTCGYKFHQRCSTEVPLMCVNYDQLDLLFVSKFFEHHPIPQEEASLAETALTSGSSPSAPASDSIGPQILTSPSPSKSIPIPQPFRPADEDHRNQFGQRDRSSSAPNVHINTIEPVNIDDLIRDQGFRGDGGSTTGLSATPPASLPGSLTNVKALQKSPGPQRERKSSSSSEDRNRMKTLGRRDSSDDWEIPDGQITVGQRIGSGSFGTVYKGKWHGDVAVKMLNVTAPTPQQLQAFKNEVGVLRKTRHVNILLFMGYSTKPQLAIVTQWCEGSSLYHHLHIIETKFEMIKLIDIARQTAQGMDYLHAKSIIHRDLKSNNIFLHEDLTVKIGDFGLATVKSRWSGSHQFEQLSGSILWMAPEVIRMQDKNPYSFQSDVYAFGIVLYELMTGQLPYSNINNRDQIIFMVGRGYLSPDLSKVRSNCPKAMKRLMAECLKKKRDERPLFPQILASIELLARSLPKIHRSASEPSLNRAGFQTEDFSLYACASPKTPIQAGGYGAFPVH
EGFR kinase, sequence (P00533 25-1210): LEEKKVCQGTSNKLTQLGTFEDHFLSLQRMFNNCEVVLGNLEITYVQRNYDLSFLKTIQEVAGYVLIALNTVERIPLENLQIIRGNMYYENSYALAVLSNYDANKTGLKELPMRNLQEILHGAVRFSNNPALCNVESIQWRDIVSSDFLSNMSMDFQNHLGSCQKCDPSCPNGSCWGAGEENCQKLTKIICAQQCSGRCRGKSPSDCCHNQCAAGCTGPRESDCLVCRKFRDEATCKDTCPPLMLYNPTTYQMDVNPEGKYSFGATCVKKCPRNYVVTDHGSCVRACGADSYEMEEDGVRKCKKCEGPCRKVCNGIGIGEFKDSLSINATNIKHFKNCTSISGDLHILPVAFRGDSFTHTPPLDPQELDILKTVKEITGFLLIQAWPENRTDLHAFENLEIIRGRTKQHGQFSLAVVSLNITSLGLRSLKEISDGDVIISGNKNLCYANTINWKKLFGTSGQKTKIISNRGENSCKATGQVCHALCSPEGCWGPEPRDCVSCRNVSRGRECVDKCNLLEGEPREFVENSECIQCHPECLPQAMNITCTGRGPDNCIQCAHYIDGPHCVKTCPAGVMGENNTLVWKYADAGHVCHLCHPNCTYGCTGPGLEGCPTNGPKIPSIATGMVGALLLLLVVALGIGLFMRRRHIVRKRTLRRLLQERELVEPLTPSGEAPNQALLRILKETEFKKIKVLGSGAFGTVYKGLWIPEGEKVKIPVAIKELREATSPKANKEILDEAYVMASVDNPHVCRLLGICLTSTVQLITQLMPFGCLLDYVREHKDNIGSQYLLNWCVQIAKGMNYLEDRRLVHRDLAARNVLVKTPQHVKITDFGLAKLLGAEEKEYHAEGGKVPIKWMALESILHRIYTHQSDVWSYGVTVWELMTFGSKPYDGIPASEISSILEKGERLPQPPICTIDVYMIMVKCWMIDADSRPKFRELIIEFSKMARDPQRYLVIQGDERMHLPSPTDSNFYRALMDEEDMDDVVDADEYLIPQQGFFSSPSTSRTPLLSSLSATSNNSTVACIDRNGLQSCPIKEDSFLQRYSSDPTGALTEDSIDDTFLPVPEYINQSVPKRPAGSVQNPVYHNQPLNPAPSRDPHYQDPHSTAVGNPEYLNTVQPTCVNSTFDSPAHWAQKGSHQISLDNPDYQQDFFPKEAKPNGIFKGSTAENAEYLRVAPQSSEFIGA
T1 sequence (P04818 whole entry): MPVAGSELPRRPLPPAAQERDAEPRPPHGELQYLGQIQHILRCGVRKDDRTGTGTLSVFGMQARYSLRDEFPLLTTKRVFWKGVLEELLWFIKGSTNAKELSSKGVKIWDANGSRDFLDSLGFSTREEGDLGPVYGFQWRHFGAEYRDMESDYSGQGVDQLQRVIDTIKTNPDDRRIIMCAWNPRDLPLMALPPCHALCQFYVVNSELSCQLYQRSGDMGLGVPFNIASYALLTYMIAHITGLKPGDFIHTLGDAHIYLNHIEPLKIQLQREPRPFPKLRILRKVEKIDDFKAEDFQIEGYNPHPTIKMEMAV

O=C(NNC(=O)c1ccccc1NS(=O)(=O)c1c[nH]c(=O)[nH]c1=O)c1cccc(Cl)c1 [Compound 10l, reference compound]
SI (Selectivity index) IOSE80 (IOSE80 cell line): 11.90 | SI (Selectivity index) GES-1 (GES-1 cell line): 14.25 | IC50 (BRaf kinase): 1.67 µM | SI (Selectivity index) LO2 (LO2 cell line): 12.57 | IC50 (A549 cells [1]): 1.26 ± 0.16 µM | IC50 (human TS (hTS)): 1.36 µM | inhibition of SK-MES-1 cells (SK-MES-1 cells): did not inhibit | IC50 (EGFR kinase): 2.71 µM | IC50 (HepG2 cells): 7.66 ± 0.77 µM | SI (Selectivity index) HPAEpiC (HPAEpiC cell line): 16.56 | IC50 (HCT-116 cells): 2.27 ± 0.23 µM | SI (Selectivity index) HTB-125 (HTB-125 cell line): 5.26 | IC50 (OVCAR-3 cells): 2.08 ± 0.12 µM | IC50 (SGC7901 cells): 1.82 ± 0.08 µM | inhibition of A549 cells migration (A549 cells [2]): could inhibit A549 cells migration at high doses | IC50 (MDA-MB-231 cells): 2.04 ± 0.37 µM | SI (Selectivity index) HCoEpiC (HCoEpiC cell line): 4.09

Nc1nc2[nH]cc(CCc3ccc(C(=O)N[C@@H](CCC(=O)O)C(=O)O)cc3)c2c(=O)[nH]1 [PTX, pemetrexed, reference compound]
histopathological changes in liver, lung, brain, and kidney (HE staining) (FVB mice): no visible pathological changes | IC50 (A549 cells [1]): 3.29 ± 0.15 µM | inhibition of SK-MES-1 cells (SK-MES-1 cells): did not inhibit | IC50 (HCT-116 cells): 4.64 ± 0.22 µM | IC50 (OVCAR-3 cells): 7.35 ± 0.6 µM | IC50 (SGC7901 cells): 6.96 ± 0.43 µM | IC50 (MDA-MB-231 cells): 4.18 ± 0.14 µM

O=C(Nc1ccccc1Cl)Nc1ccccc1NS(=O)(=O)c1c[nH]c(=O)[nH]c1=O [Compound L14d, N'-(2-chlorophenyl)-2-(2,4-dihydroxypyrimidine-5-sulfonamido)phenyl urea]
IC50 (BRaf kinase): 1.62 µM | IC50 (A549 cells [1]): 3.29 ± 0.3 µM | IC50 (human TS (hTS)): 1.91 µM | IC50 (EGFR kinase): 2.39 µM | IC50 (HepG2 cells): 2.2 ± 0.06 µM | IC50 (HCT-116 cells): 4.96 ± 0.63 µM | IC50 (OVCAR-3 cells): 7.27 ± 1.23 µM | IC50 (SGC7901 cells): 5.22 ± 0.18 µM | melting point: 151 to 153 °C | IC50 (MDA-MB-231 cells): 6.71 ± 0.18 µM

Cc1cccc(NC(=O)Nc2ccc(NS(=O)(=O)c3c[nH]c(=O)[nH]c3=O)cc2)c1 [Compound L13h, N'-(3-methylphenyl)-4-(2,4-dihydroxypyrimidine-5-sulfonamido)phenylurea]
IC50 (BRaf kinase): 3.53 µM | IC50 (A549 cells [1]): 1.85 ± 0.13 µM | IC50 (human TS (hTS)): 4.57 µM | IC50 (EGFR kinase): 3.99 µM | IC50 (HepG2 cells): 5.83 ± 0.18 µM | IC50 (HCT-116 cells): 5.46 ± 1.21 µM | IC50 (OVCAR-3 cells): 9.56 ± 0.94 µM | IC50 (SGC7901 cells): 6.35 ± 0.52 µM | melting point: 179 to 182 °C | IC50 (MDA-MB-231 cells): > 10 µM

Cc1ccc(NC(=O)Nc2ccc(NS(=O)(=O)c3c[nH]c(=O)[nH]c3=O)cc2)cc1 [Compound L13i, N'-(4-methylphenyl)-4-(2,4-dihydroxypyrimidine-5-sulfonamido) phenyl urea]
IC50 (BRaf kinase): 4.91 µM | IC50 (A549 cells [1]): 3.48 ± 0.13 µM | IC50 (human TS (hTS)): 7.39 µM | IC50 (EGFR kinase): 5.48 µM | IC50 (HepG2 cells): 8.25 ± 0.25 µM | IC50 (HCT-116 cells): 7.98 ± 0.61 µM | IC50 (OVCAR-3 cells): > 10 µM | IC50 (SGC7901 cells): 4.92 ± 0.23 µM | melting point: 181 to 183 °C | IC50 (MDA-MB-231 cells): > 10 µM
